In US4739050A, “2-phenyl-1,4-benzothiazin-3-one derivatives” (Santen Pharmaceutical Co., Ltd., priority 1985, dated 1988):
Structures can show the parent of a compound that is named as a salt.

system: guinea-pig teania coli; experiment: Pharmacological test I: calcium-antagonistic activity, inhibition of Ca++-induced contraction of isolated guinea-pig teania coli; conditions: Cavia porcellus, 5 min, Ca++-free-high-K Krebs, 5 min exposure before CaCl2 (3×10^-4 M), 32° C., read-out: Calcium-antagonistic activity IC50 (concentration eliciting 50% inhibition of Ca++-induced contraction)
Procedure: The action potentials on the smooth muscles of uterus, teania coli and portal vein are dependent on calcium ion, and therefore these smooth muscle preparations are useful for screening of calcium antagonists. We measured the calcium-antagonistic activity of the compounds by the method using guinea-pig teania coli preparation.
Isolated guinea-pig teania coli was suspended in a organ bath filled with Krebs solution at 32° C. and bubbled with 5% carbon dioxide in oxygen. After equilibration, the muscle was washed with Ca^++ -free Krebs solution, and when the muscle had relaxed to the basal level, it was suspended in Ca^++ -free-high-K Krebs solution.
The muscle was exposed to test compounds for 5 minutes before addition of CaCl2, and the contraction induced by CaCl2 (3×10^-4 M) was recorded isotonically. The calcium-antagonistic activity was represented by the concentration of test compound which elicited 50% inhibition of Ca^++ -induced contraction (IC50).

Q: For `COc1ccc(OC)c(C2(CCCN(C)C3CCCCC3)Sc3ccccc3N(C)C2=O)c1` (centres unmarked) [compound 80, 3,4-Dihydro-2-(2,5-dimethoxyphenyl)-4-methyl-2-[3-(N-methylcyclohexylamino)propyl]-3-oxo-2H-1,4-benzothiazine oxalate], which IC50 is on record?
A: Its IC50 is 710 nM.

Q: How did the IC50 turn out when `COc1ccc(OC)c(C2(CCCN(C)CCc3cc(OC)c(OC)c(OC)c3)Sc3ccccc3N(C)C2=O)c1` (centres unmarked) [compound 83, 3,4-Dihydro-2-(2,5-dimethoxyphenyl)-4-methyl-2-[3-(N-methyl-3,4,5-trimethoxyphenethylamino)propyl[-3-oxo-2H-1,4-benzothiazine oxalate] was run?
A: Its IC50 is 860 nM.

Q: Which IC50 does the source give for `COc1ccc(CCN(C)CCCCOc2ccc(C3(SC)Sc4ccccc4N(C)C3=O)cc2)cc1OC` (centres unmarked) [compound 103, 3,4-Dihydro-4-methyl-2-[4-[4-(N-methyl-3,4-dimethoxyphenethylamino)butoxy]phenyl]-2-methylthiol-3-oxo-2H-1,4l-benzothiazine hydrochloride] here?
A: Its IC50 is 530 nM.

Q: With `COc1ccc(OCCCN(C)CCc2ccc(OC)c(OC)c2)c(C2(SC)Sc3ccccc3N(C)C2=O)c1` (centres unmarked) [compound 131, 3,4-Dihydro-2-[5-methoxy-2-[3-(N-methyl-3,4-dimethoxyphenethylamino)propoxy]phenyl]-4-methyl-2-methylthio-3-oxo-2H-1,4-benzothiazine hydrochloride] as the compound, how does the IC50 read?
A: Its IC50 is 630 nM.

Q: Which IC50 does the source give for `COc1ccc(OCCCCN(C)CCc2cc(OC)c(OC)c(OC)c2)c(C2(SC)Sc3ccccc3N(C)C2=O)c1` (centres unmarked) [compound 142, 3,4-Dihydro-2-[5-methoxy-2-[4-(N-methyl-3,4,5-trimethoxyphenethylamino)butoxy]phenyl]-4-methyl-2-methylthio-3-oxo-2H-1,4-benzothiazine hydrochloride] here?
A: Its IC50 is 630 nM.

Q: Which IC50 does the source give for `COc1ccc(OCCCN(C)CCOc2ccc3c(c2)OCO3)c(C2(OC)Sc3ccccc3N(C)C2=O)c1` (centres unmarked) [compound 147, 3,4-Dihydro-2-methoxy-2-[5-methoxy-2-[3-[N-methyl-2-(3,4-methylenedioxyphenoxy)ethylamino]propoxy]phenyl]-4-methyl-3-oxo-2H-1,4-benzothiazine hydrochloride] here?
A: Its IC50 is 420 nM.

Q: For `COc1ccc(OCCCCN(C)CCOc2ccc3c(c2)OCO3)c(C2(OC)Sc3ccccc3N(C)C2=O)c1` (centres unmarked) [compound 148, 3,4-Dihydro-2-methoxy-2-[5-methoxy-2-[4-[N-methyl-2-(3,4-methylenedioxyphenoxy)ethylamino]butoxy]phenyl]-4-methyl-3-oxo-2H-1,4-benzothiazine hydrochloride], which IC50 is on record?
A: Its IC50 is 380 nM.

Q: `COc1ccc(OCCCCN(C)CCOc2ccc3c(c2)OCO3)c(C2(SC)Sc3ccccc3N(C)C2=O)c1` (centres unmarked) [compound 150, 3,4-Dihydro-2-[5-methoxy-2-[4-[N-methyl-2-(3,4-methylenedioxyphenoxy)ethylamino]butoxy]phenyl]-4-methyl-2-methylthio-3-oxo-2H-1,4-benzothiazine hydrochloride hemihydrate] was tested. Which IC50 did it give?
A: The IC50 was 890 nM.
